Data reported in publication PMC4584933, “Establishing the pig as a large animal model for vaccine development against human cancer” (Frontiers in Genetics, 2015).

Experiments:
SLA-3*04:01 = assay: Peptide-MHC class I complex stability, scintillation proximity assay (SPA); design: species or system pig; conditions: biotinylated recombinant SLA heavy chain, 125I-β2m, excess unlabeled β2m, read every 40 min, number only if t1/2 ≥ 0.5 h, '-' = not stably binding
Description: (§1) The stability of the selected 198 peptides in complex with relevant SLA class I molecules and β2m was determined using a scintillation proximity assay (SPA), as previously described (Harndahl et al., [2011]). Briefly, biotinylated recombinant MHC class I heavy chains were attached to a streptavidin-coated scintillation microplate together with iodinated (^125I) β2m and candidate peptide resulting in a scintillation signal, which was consecutively measured every 40 min by a scintillation plate counter. The duration of this signal is directly correlated to the stability of the peptide-MHC class I-β2m complex under dissociating conditions and in the presence of excess unlabeled β2m (Harndahl et al., [2011]). Peptides with a half-life ≥ 0.5 h were selected as stable binders.

SLA-2*05:02 = assay: as above; design: species or system pig; conditions: biotinylated recombinant SLA heavy chain, 125I-β2m, excess unlabeled β2m, read every 40 min, number only if t1/2 ≥ 0.5 h, '-' = not stably binding
Description: as §1

PBMCs = assay: In vitro peptide stimulation of porcine PBMCs, IFN-γ release assay (ELISA); format: cell-based, pig; design: key to T cell response: “x” indicates that a response was found to this given peptide at least once; conditions: 5 μg/ml peptide; for T cell response: PBMCs of immunized pigs, 2 × 10^5/well, 67.5–70.0 h, IFN-γ ELISA, response = 2-fold increase vs day -2 and at least 25 pg/ml IFN-γ, found at least once, SLA restriction not included
SLA-2*04:01 = assay: Peptide-MHC class I complex stability, scintillation proximity assay (SPA); design: species or system pig; conditions: biotinylated recombinant SLA heavy chain, 125I-β2m, excess unlabeled β2m, read every 40 min, number only if t1/2 ≥ 0.5 h, '-' = not stably binding
Description: as §1

Sequence | Binder (t1/2 ≥ 0.5 h): half-life of peptide-SLA-2*05:02 complex (SLA-2*05:02) | T cell response (PBMCs) | also measured
VSLRNYHLQI [IDO130, porcine IDO-derived 9-11mer peptide] | - (t1/2 (hours) is listed for each of the stably binding peptides (t1/2 ≥ 0.5 h)) |  | Binder (t1/2 ≥ 0.5 h): half-life of peptide-SLA-3*04:01 complex (SLA-3*04:01): - (t1/2 (hours) is listed for each of the stably binding peptides (t1/2 ≥ 0.5 h))
VLSKGDALL [IDO127, porcine IDO-derived 9-11mer peptide] | - (t1/2 (hours) is listed for each of the stably binding peptides (t1/2 ≥ 0.5 h)) |  | 
AIAKNLPELI [IDO3, porcine IDO-derived 9-11mer peptide] | 54 min |  | 
ELPHPYDAWI [IDO18, porcine IDO-derived 9-11mer peptide] | 348 min |  | 
KALEVFHQI [IDO45, porcine IDO-derived 9-11mer peptide] | - (t1/2 (hours) is listed for each of the stably binding peptides (t1/2 ≥ 0.5 h)) |  | 
ALQKALLDI [IDO5, porcine IDO-derived 9-11mer peptide] | - (t1/2 (hours) is listed for each of the stably binding peptides (t1/2 ≥ 0.5 h)) | x | 
NSWKIFEEYHI [IDO91, porcine IDO-derived 9-11mer peptide] | 126 min | x | 
EELPHPYDAWI [IDO14, porcine IDO-derived 9-11mer peptide] | - (t1/2 (hours) is listed for each of the stably binding peptides (t1/2 ≥ 0.5 h)) |  | 
RNFLHSLES [IDO105, porcine IDO-derived 9-11mer peptide] |  | x | Binder (t1/2 ≥ 0.5 h): half-life of peptide-SLA-3*04:01 complex (SLA-3*04:01): 882 min
FLVSLLVEI [IDO25, porcine IDO-derived 9-11mer peptide] | - (t1/2 (hours) is listed for each of the stably binding peptides (t1/2 ≥ 0.5 h)) |  | 
RNFLHSLESGP [IDO107, porcine IDO-derived 9-11mer peptide] |  | x | Binder (t1/2 ≥ 0.5 h): half-life of peptide-SLA-3*04:01 complex (SLA-3*04:01): 42 min
TVFENYIADI [RhoC51, porcine RhoC-derived 9-11mer peptide] | 54 min | x | 
HLQIVTKYI [IDO38, porcine IDO-derived 9-11mer peptide] | 30 min |  | 
LLVEIAAASAI [IDO68, porcine IDO-derived 9-11mer peptide] | 30 min | x | 
FLHSLESGPSV [IDO23, porcine IDO-derived 9-11mer peptide] | 36 min | x | 
DVILMCFSI [RhoC12, porcine RhoC-derived 9-11mer peptide] | 354 min | x | 
WKIFEEYHI [IDO131, porcine IDO-derived 9-11mer peptide] | 138 min | x | 
MVSLRNYHLQI [IDO84, porcine IDO-derived 9-11mer peptide] | - (t1/2 (hours) is listed for each of the stably binding peptides (t1/2 ≥ 0.5 h)) |  | 
DLRQDEHTR [RhoC6, porcine RhoC-derived 9-11mer peptide] | 30 min | x | 
LSYPDTDVI [RhoC35, porcine RhoC-derived 9-11mer peptide] | - (t1/2 (hours) is listed for each of the stably binding peptides (t1/2 ≥ 0.5 h)) |  | Binder (t1/2 ≥ 0.5 h): half-life of peptide-SLA-2*04:01 complex (SLA-2*04:01): - (t1/2 (hours) is listed for each of the stably binding peptides (t1/2 ≥ 0.5 h))
HKALEVFHQI [IDO36, porcine IDO-derived 9-11mer peptide] | - (t1/2 (hours) is listed for each of the stably binding peptides (t1/2 ≥ 0.5 h)) |  | 
IAIAKNLPELI [IDO44, porcine IDO-derived 9-11mer peptide] | - (t1/2 (hours) is listed for each of the stably binding peptides (t1/2 ≥ 0.5 h)) |  | 
ANRISAFGY [RhoC2, porcine RhoC-derived 9-11mer peptide] |  | x | Binder (t1/2 ≥ 0.5 h): half-life of peptide-SLA-3*04:01 complex (SLA-3*04:01): - (t1/2 (hours) is listed for each of the stably binding peptides (t1/2 ≥ 0.5 h)); Binder (t1/2 ≥ 0.5 h): half-life of peptide-SLA-2*04:01 complex (SLA-2*04:01): 156 min
KNKRRRGCPI [RhoC31, porcine RhoC-derived 9-11mer peptide] |  | x | Binder (t1/2 ≥ 0.5 h): half-life of peptide-SLA-3*04:01 complex (SLA-3*04:01): 42 min

Sequence | Binder (t1/2 ≥ 0.5 h): half-life of peptide-SLA-2*05:02 complex (SLA-2*05:02) | T cell response (PBMCs) | also measured
ENIPEKWTPEV [RhoC18, porcine RhoC-derived 9-11mer peptide] | 90 min | x | 
ELAKMKQEP [RhoC15, porcine RhoC-derived 9-11mer peptide] | - (t1/2 (hours) is listed for each of the stably binding peptides (t1/2 ≥ 0.5 h)) |  | 
LSYPDTDVIL [RhoC36, porcine RhoC-derived 9-11mer peptide] | 36 min | x | 
VPTVFENYI [RhoC54, porcine RhoC-derived 9-11mer peptide] | 108 min |  | 
LSEKLGLPPI [IDO72, porcine IDO-derived 9-11mer peptide] | - (t1/2 (hours) is listed for each of the stably binding peptides (t1/2 ≥ 0.5 h)) |  | 
LSYPDTDVILM [RhoC37, porcine RhoC-derived 9-11mer peptide] | 84 min |  | Binder (t1/2 ≥ 0.5 h): half-life of peptide-SLA-2*04:01 complex (SLA-2*04:01): - (t1/2 (hours) is listed for each of the stably binding peptides (t1/2 ≥ 0.5 h))
EVEKLATLSI [IDO20, porcine IDO-derived 9-11mer peptide] | 42 min | x | 
HLQIVTKYIVI [IDO39, porcine IDO-derived 9-11mer peptide] | 36 min |  | 
ELAKMKQEPVR [RhoC16, porcine RhoC-derived 9-11mer peptide] | 48 min | x | 
KVIPTLFNAI [IDO61, porcine IDO-derived 9-11mer peptide] | - (t1/2 (hours) is listed for each of the stably binding peptides (t1/2 ≥ 0.5 h)) |  | 
MAAIRKKLVI [RhoC40, porcine RhoC-derived 9-11mer peptide] | 30 min |  | 
SAIKVIPTLF [IDO114, porcine IDO-derived 9-11mer peptide] | - (t1/2 (hours) is listed for each of the stably binding peptides (t1/2 ≥ 0.5 h)) | x | Binder (t1/2 ≥ 0.5 h): half-life of peptide-SLA-2*04:01 complex (SLA-2*04:01): 30 min
DIRKVLPRNI [IDO10, porcine IDO-derived 9-11mer peptide] | - (t1/2 (hours) is listed for each of the stably binding peptides (t1/2 ≥ 0.5 h)) |  | 
ENIPEKWTP [RhoC17, porcine RhoC-derived 9-11mer peptide] | 66 min |  | 
KNMDILFSF [IDO58, porcine IDO-derived 9-11mer peptide] |  | x | Binder (t1/2 ≥ 0.5 h): half-life of peptide-SLA-3*04:01 complex (SLA-3*04:01): - (t1/2 (hours) is listed for each of the stably binding peptides (t1/2 ≥ 0.5 h)); Binder (t1/2 ≥ 0.5 h): half-life of peptide-SLA-2*04:01 complex (SLA-2*04:01): 480 min
EVKHFCPNVPI [RhoC24, porcine RhoC-derived 9-11mer peptide] | 336 min | x | 
EIAAASAIKV [IDO15, porcine IDO-derived 9-11mer peptide] | 156 min | x | maximum level of secreted IFN-γ (PBMCs; pig 2042 (CASAC), day 12, following 72 h of stimulation, ELISA): 280 pg/mL
YVPTVFENYI [RhoC61, porcine RhoC-derived 9-11mer peptide] | 42 min |  | 
RNYHLQIVTKY [IDO112, porcine IDO-derived 9-11mer peptide] |  |  | Binder (t1/2 ≥ 0.5 h): half-life of peptide-SLA-3*04:01 complex (SLA-3*04:01): 30 min; Binder (t1/2 ≥ 0.5 h): half-life of peptide-SLA-2*04:01 complex (SLA-2*04:01): 216 min
ENRGTGGTNVI [IDO19, porcine IDO-derived 9-11mer peptide] | - (t1/2 (hours) is listed for each of the stably binding peptides (t1/2 ≥ 0.5 h)) |  | 
EVKHFCPNV [RhoC23, porcine RhoC-derived 9-11mer peptide] | 120 min | x | 
KLSEKLGLPPI [IDO56, porcine IDO-derived 9-11mer peptide] | - (t1/2 (hours) is listed for each of the stably binding peptides (t1/2 ≥ 0.5 h)) |  | 
QRLAHLVLGY [IDO102, porcine IDO-derived 9-11mer peptide] |  |  | Binder (t1/2 ≥ 0.5 h): half-life of peptide-SLA-3*04:01 complex (SLA-3*04:01): - (t1/2 (hours) is listed for each of the stably binding peptides (t1/2 ≥ 0.5 h)); Binder (t1/2 ≥ 0.5 h): half-life of peptide-SLA-2*04:01 complex (SLA-2*04:01): - (t1/2 (hours) is listed for each of the stably binding peptides (t1/2 ≥ 0.5 h))
